Values joined by “and” are separate entries in the source; they are usually repeats but may differ in a detail not shown here. Identical values can stand only once. Like-named read-outs stand apart in the source and are kept apart here.
Columns and labels:
Assay type in all cases: in vivo
[1] = body weight increase inhibition on chronic oral administration; conditions: rats; compared with a maleate salt having an average particle diameter of about 50 microns
Method: A further advantage results from body weight increase inhibition which is one of the main side effects of the compound and salts of the present invention. When 10 mg/kg or more per day of either the compound or maleate salt is chronically administered to rats orally, body weight increase is inhibited. This is a side effect of triazines of this type. […] However, when the compound or a pharmaceutically acceptable acid addition salt thereof according to the present invention having an average particle diameter of about 8 microns was administered, the appearance of the side effect was only transient and moderate and the recovery of body weight was far faster as compared to that occurring when the compound was administered having an average particle diameter of about 50 microns.
The average particle sizes were 8 microns for the compound according to the present invention as compared to the same compound having an average particle diameter of 50 microns.

male rats = assay: toxicity on intraperitoneal injection (LD50); conditions: for LD50: injected intraperitoneally, male rats, limits given in brackets
Excerpt: This decrease in toxicity is totally unexpected and represents a significant and important advance in the art.

[2] = tested on: ulcer formation induced by stress; assay: stress ulcer in rats, immobilization-water immersion method; conditions: for Inhibition Rate / ED50: stress ulcer; for ED50: per os; for activity on ulcer formation induced by stress: orally
Excerpt: Since 50 microns is a common particle diameter in pharmaceutical preparations, it was most surprising that such significant and important advantages accrued according to the present invention. Inhibition activity against stress ulcer in rats of the compound and pharmaceutically acceptable acid additio salts in the finely pulverized form of the present invention are set forth in Table 2.

SMILES	improvement in body weight side effect [1]	LD50 (male rats; listed as the maleate salt according to the present invention)	Inhibition Rate ([2]; 0.3 mg/kg)	Inhibition Rate ([2]; 1.0 mg/kg)	Inhibition Rate ([2]; 3.0 mg/kg)	Inhibition Rate ([2]; 10 mg/kg)	ED50 ([2]; determined from the data of Table 2)	rats killed (male rats; intraperitoneal injection, dosages up to 3000 mg/kg)	ED50 ([2]; Rattus norvegicus, po, determined from the data of Table 2, read-out: ED50)	activity on ulcer formation induced by stress ([2]; dosage of 1 mg/kg)	Inhibition Rate ([2]; 30 mg/kg)	LD50 (male rats)	LD50 (male rats; listed as the same compound having an average particle diameter of about 50 microns)	activity on ulcer formation induced by stress ([2]; dosage of 5 mg/kg)	Inhibition Rate ([2]; 0.37 mg/kg per os, three values, 0.37 mg/kg)	Inhibition Rate ([2]; 3.72 mg/kg per os, three values, 3.72 mg/kg)
Nc1nc(N)nc(-c2cc(Cl)ccc2Cl)n1 [Substance (II), 2,4-diamino-6-(2,5-dichlorophenyl)-1,3,5-triazine]	particularly dramatic	835 mg/kg	35%	51%	70%	85%	0.90 mg/kg	–	–	–	–	–	–	–	–	–
Nc1nc(N)nc(-c2cc(Cl)ccc2Cl)n1 [Substance (I), 2,4-diamino-6-(2,5-dichlorophenyl)-1,3,5-triazine]	–	–	33%	45%	63%	70%	–	no rats were killed	1.22 mg/kg	effective	85%	–	–	–	–	–
Nc1nc(N)nc(-c2cc(Cl)ccc2Cl)n1 [2,4-diamino-6-(2,5-dichlorophenyl)-1,3,5-triazine]	–	–	–	–	–	–	–	–	–	–	–	495 mg/kg	1740 mg/kg	ineffective	37% and 46% and 29%	62% and 47% and 33%

— patent EP0114908A1, “Finely pulverized 2,4-diamino-6-(2,5-dichlorophenyl)-1,3,5-triazine and pharmaceutically acceptable acid addition salts thereof” (NIPPON SHINYAKU COMPANY, LIMITED, priority 1983, dated 1984)
